Results reported in the NIST ThermoML archive (doi:10.1016/j.fluid.2017.10.003).
Numbers after ± are expanded uncertainties.

Settings: 101.33 kPa, Liquid

Row | viscosity (293.15 K) [mPa·s] | viscosity (298.15 K) [mPa·s] | viscosity (303.15 K) [mPa·s] | viscosity (308.15 K) [mPa·s] | viscosity (313.15 K) [mPa·s] | viscosity (318.15 K) [mPa·s] | viscosity (323.15 K) [mPa·s] | viscosity (328.15 K) [mPa·s] | viscosity (333.15 K) [mPa·s] | viscosity (338.15 K) [mPa·s] | viscosity (343.15 K) [mPa·s] | viscosity (348.15 K) [mPa·s] | viscosity (353.15 K) [mPa·s] | viscosity (358.15 K) [mPa·s] | viscosity (363.15 K) [mPa·s] | Compound
1 | 2619 | 1796 | 1260 | 904.36 | 596.88 | 445.06 ± 200 | 335.81 ± 130 | 256.28 ± 85 | 199.67 ± 56 | 153.8 ± 35 | 122.53 ± 22 | 98.65 ± 15 | 80.46 ± 11 | 66.2 ± 8.7 | 53.33 ± 8 | CCCC(=O)[O-].[NH3+]CCO [2-hydroxy ethylammonium butanoate]
2 | 3073 | 1974 | 1306 | 896.3 | 624.5 | 363.72 ± 150 | 271.13 ± 93 | 203.65 ± 58 | 159.15 ± 37 | 123.69 ± 23 | 98.5 ± 14 | 79.76 ± 8.3 | 65.27 ± 5.6 | 52.72 ± 4.6 | 43.69 ± 5 | CC(=O)[O-].[NH3+]CCO [2-hydroxyethylammonium acetate]
3 | 129 ± 50 | 98.49 ± 27 | 71.9 ± 11 | 56.34 ± 2.8 | 44.88 ± 4.3 | 36.53 ± 3.5 | 30.1 ± 2.9 | 24.92 ± 2.4 | 21 ± 2.1 | 18.98 ± 1.9 | 16.3 ± 1.6 | 13.96 ± 1.4 | 12.1 ± 1.3 | 10.57 ± 1.2 | 9.3 ± 1.1 | NCCO.O=CO [2-hydroxyethylammonium formate]
